The source of these data is ChEMBL document CHEMBL1641404 (Bioorg Med Chem Lett, 2011).

Format in all cases: ADME, organism-based
A short description of data set [1]: Half life in Sprague-Dawley rat 1 mg/kg, iv. On the set-up: dose 1 mg/kg, route intravenous. The conditions noted are these: in vivo.
The nature of data set [2]: Oral bioavailability in Sprague-Dawley rat 5 mg/kg. The conditions noted are these: in vivo.
The nature of data set [3]: Plasma concentration in mouse bearing ALK-positive tumor xenografts at 30 mg/kg, po up to 12 hrs. The arrangement: dose 30 mg/kg, route oral.
Data set [4] in a line: Half life in CD-1 mouse 1 mg/kg, iv. The arrangement: dose 1 mg/kg, route intravenous. To be noted: in vivo.
Data set [5] is described as follows: Clearance in Sprague-Dawley rat 1 mg/kg, iv. On the set-up: dose 1 mg/kg, route intravenous. The conditions noted are these: in vivo.
A short description of data set [6]: Volume of distribution in CD-1 mouse 1 mg/kg, iv. The arrangement: dose 1 mg/kg, route intravenous. To be noted: in vivo.
The nature of data set [7]: Tmax in Sprague-Dawley rat 5 mg/kg, po. On the set-up: dose 5 mg/kg, route oral. To be noted: in vivo.
The nature of data set [8]: AUC (0 to t) in CD-1 mouse 1 mg/kg, iv. On the set-up: dose 1 mg/kg, route intravenous. To be noted: plasma.
Data set [9] is described as follows: Volume of distribution in Sprague-Dawley rat 1 mg/kg, iv. The arrangement: dose 1 mg/kg, route intravenous. The conditions noted are these: in vivo.
Data set [10] in a line: AUC (0 to t) in Sprague-Dawley rat 5 mg/kg, po. The arrangement: dose 5 mg/kg, route oral. The conditions noted are these: plasma.
The nature of data set [11]: AUC (0 to t) in Sprague-Dawley rat 1 mg/kg, iv. On the set-up: dose 1 mg/kg, route intravenous. The conditions noted are these: plasma.
The nature of data set [12]: Clearance in CD-1 mouse 1 mg/kg, iv. To be noted: in vivo. The arrangement: dose 1 mg/kg, route intravenous.
A further data set relates to Rattus norvegicus. Nature of the data set: Cmax in Sprague-Dawley rat 5 mg/kg, po. The arrangement: dose 5 mg/kg, route oral. To be noted: in vivo.
Data set [13] is described as follows: AUC (0 to t) in CD-1 mouse 10 mg/kg, po. On the set-up: dose 10 mg/kg, route oral. To be noted: plasma.
A short description of data set [14]: Oral bioavailability in CD-1 mouse 10 mg/kg. To be noted: in vivo.
The next data set concerns Mus musculus. Nature of the data set: Cmax in CD-1 mouse 10 mg/kg, po. On the set-up: dose 10 mg/kg, route oral. The conditions noted are these: in vivo.
A short description of data set [15]: Tmax in CD-1 mouse 10 mg/kg, po. On the set-up: dose 10 mg/kg, route oral. The conditions noted are these: in vivo.
Data set [16] in a line: Half life in CD-1 mouse 10 mg/kg, po. The conditions noted are these: in vivo. On the set-up: dose 10 mg/kg, route oral.

The structures appear in SMILES notation.

`COc1cc2c(cc1Nc1ncc(Cl)c(Nc3ccc(N4CCOCC4)cc3OC)n1)CCN(CC(=O)N(C)C)CC2`: the half-life in data set [1] is 48 min; in data set [4], 42 min; in data set [16], 186 min. The bioavailability in data set [2] was 30%; in data set [14] it was 64%. Further, the concentration at 12 h in data set [3] was determined as 3000 nM. In addition, the clearance in data set [5] amounted to 16 mL/min/kg; in data set [12], 20 mL/min/kg. Besides, the Vd in data set [6] was determined as 1.2 L/kg; in [9] it was 1.1 L/kg. Further, the time of peak concentration (Tmax) in [7] is 198 min; in data set [15], 30 min. Moreover, the AUC(0-t) in data set [8] is 830 ng·h/mL; in [10], 1400 ng·h/mL; in data set [11] it was 1020 ng·h/mL; in data set [13] it was 3900 ng·h/mL. Moreover, the Cmax in the data set with Rattus norvegicus was 306 ng/mL; in the data set on Mus musculus it was 1190 ng/mL.
